# Measurements reported in patent publication US7388005B2, “Substituted 2-pyrimidinyl-6,7,8,9-tetrahydropyrimido[1,2-a]pyrimidin-4-one and 7-pyrimidinyl-2,3-dihydroimidazo [1,2-a]pyrimidin-5(1H)one derivatives for neurodegenerative disorders” (Sanofi-Aventis, priority 2001, dated 2008).
# pIC50: −log10 of the molar value.
# Experiments:
# GSK3β = GSK3β (Homo sapiens, UniProt P49841); test: Inhibitory activity against GSK3β (TPK1), 33P-ATP phosphorylation of prephosphorylated GS1 peptide; format: biochemical
# Method: Two different protocols can be used.
# In a first protocol: 7.5 μM of prephosphorylated GS1 peptide and 10 μM ATP (containing 300,000 cpm of 33P-ATP) were incubated in 25 mM Tris-HCl, pH 7.5, 0.6 mM DTT, 6 mM MgCl2, 0.6 mM EGTA, 0.05 mg/ml BSA buffer for 1 hour at room temperature in the presence of GSK3β (total reaction volume: 100 microliters).
# In a second protocol: 4.1 μM of prephosphorylated GS1 peptide and 42 μM ATP (containing 260,000 cpm 33P-ATP) were incubated in 80 mM Mes-NaOH, pH 6.5, 1 mM Mg acetate, 0.5 mM EGTA, 5 mM 2-mercaptoethanol, 0.02% Tween 20, 10% glycerol buffer for 2 hours at room temperature in the presence of GSK3β. Inhibitors were solubilised in DMSO (final solvent concentration in the reaction medium, 1%).
# (§1) The reaction was stopped with 100 microliters of a solution made of 25 g polyphosphoric acid (85% P2O5), 126 ml 85% H3PO4, H2O to 500 ml and then diluted to 1:100 before use. An aliquot of the reaction mixture was then transferred to Whatman P81 cation exchange filters and rinsed with the solution described above. Incorporated 33P radioactivity was determined by liquid scintillation spectrometry.
# The phosphorylated GS-1 peptide had the following sequence: NH2-[…](P)EDEE-COOH.
# The GSK3β inhibitory activity of the compounds of the present invention are expressed in IC50, and as an illustration the range of IC50's of the compounds in table 1 is between 2 nanomolar to 2 micromolar concentrations, of the compounds in table 2 is between 30 nanomolar to 2 micromolar concentrations and of the compounds in table 3 is between 1 nanomolar to 2 micromolar concentrations.
# cdk5/p25 = cdk5/p25 (Homo sapiens, UniProt Q00535); test: Inhibitory activity against cdk5/p25 (TPK2), 33P-ATP phosphorylation of Histone H1; format: biochemical
# Method: The following protocol may be used:
# 0.4 mg/ml Histone H1 and 10 μM ATP (containing 300,000 cpm of ^33P-ATP) were incubated in 50 mM Hepes, pH 7.2, 1 mM DTT, 1 mM MgCl2, 1 mM EGTA, 0.02% Tween 20 buffer for 1 hour at room temperature in the presence of cdk5/p25 (total reaction volume: 100 microliters).
# Inhibitors were solubilised in DMSO (final solvent concentration in the reaction medium, 1%).
# as §1, with “solution” for “solution made”, “(diluted” for “and then diluted”, “use).” for “use.”, “^33P” for “33P”
# The cdk5/p25 inhibitory activity of the compounds of the present invention are expressed as IC50 values. Typically, 3-fold serial dilutions of the inhibitor over at least a 1000-fold concentration range are used.
# Sequence of GSK3β (P49841 whole entry, species assumed): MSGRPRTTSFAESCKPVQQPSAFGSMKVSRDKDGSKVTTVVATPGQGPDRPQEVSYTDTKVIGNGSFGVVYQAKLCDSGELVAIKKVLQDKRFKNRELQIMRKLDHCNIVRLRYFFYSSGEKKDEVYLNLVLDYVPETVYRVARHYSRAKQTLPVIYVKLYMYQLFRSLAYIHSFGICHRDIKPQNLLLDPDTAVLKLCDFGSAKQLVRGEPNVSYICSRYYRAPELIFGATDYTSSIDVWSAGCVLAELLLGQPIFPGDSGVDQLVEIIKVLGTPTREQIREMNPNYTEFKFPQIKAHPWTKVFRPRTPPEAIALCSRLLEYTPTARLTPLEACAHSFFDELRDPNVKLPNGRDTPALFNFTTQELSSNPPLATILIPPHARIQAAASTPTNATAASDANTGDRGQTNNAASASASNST
# Sequence of cdk5/p25 (Q00535 whole entry, species assumed): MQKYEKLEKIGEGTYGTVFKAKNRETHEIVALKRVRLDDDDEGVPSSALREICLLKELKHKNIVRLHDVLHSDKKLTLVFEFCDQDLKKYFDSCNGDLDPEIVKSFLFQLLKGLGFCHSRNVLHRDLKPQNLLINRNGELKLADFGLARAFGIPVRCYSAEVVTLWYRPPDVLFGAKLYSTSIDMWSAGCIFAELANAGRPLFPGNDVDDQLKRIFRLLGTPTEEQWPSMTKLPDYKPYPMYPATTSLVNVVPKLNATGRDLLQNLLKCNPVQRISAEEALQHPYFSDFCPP
# Sequence of cdk5/p25 (Q15078 99-307 partner limits assumed, species assumed): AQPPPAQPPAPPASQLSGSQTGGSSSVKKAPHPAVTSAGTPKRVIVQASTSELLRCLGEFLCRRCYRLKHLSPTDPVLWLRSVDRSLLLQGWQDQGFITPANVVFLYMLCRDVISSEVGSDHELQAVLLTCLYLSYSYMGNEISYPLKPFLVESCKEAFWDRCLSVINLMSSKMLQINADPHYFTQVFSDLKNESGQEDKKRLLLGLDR
Compound,pIC50 (GSK3β),pIC50 (cdk5/p25)
"CC1(C)CN(C[C@@H](O)c2ccccc2)c2nc(-c3ccncn3)cc(=O)n2C1 [Table 1 No. 19, 9-(2(S)-Hydroxy-2-phenyl-ethyl)-7,7-dimethyl-2-(pyrimidin-4-yl)-6,7,8,9-tetrahydro-pyrimido[1,2-a]pyrimidin-4-one]",8.10,6.42
"COc1ccccc1CCN1CC(C)(C)Cn2c1nc(-c1ccncn1)cc2=O [Table 1 No. 47, 9-[2-(2-Methoxy-phenyl)-ethyl]-7,7-dimethyl-2-(pyrimidin-4-yl)-6,7,8,9-tetrahydro-pyrimido[1,2-a]pyrimidin-4-one]",8.30,< 6.00
"COc1cc(F)ccc1C(O)CN1CC(C)(C)Cn2c1nc(-c1ccncn1)cc2=O (racemic) [Table 1 No. 69, 9-[2-(4-Fluoro-2-methoxy-phenyl)-2-hydroxy-ethyl]-7,7-dimethyl-2-(pyrimidin-4-yl)-6,7,8,9-tetrahydro-pyrimido[1,2-a]pyrimidin-4-one]",8.40,< 6.00
"O=c1c(Cl)c(-c2ccncn2)nc2n1CCCN2C[C@@H](O)c1ccccc1 [Table 1 No. 24, 3-Chloro-9-(2(S)-hydroxy-2-phenyl-ethyl)-2-(pyrimidin-4-yl)-6,7,8,9-tetrahydro-pyrimido[1,2-a]pyrimidin-4-one]",< 7.00,6.08
"Cc1c(-c2ccncn2)nc2n(c1=O)CCCN2CC(=O)c1ccccc1 [Table 1 No. 23, 3-Methyl-9-(2-oxo-2-phenyl-ethyl)-2-(pyrimidin-4-yl)-6,7,8,9-tetrahydro-pyrimido[1,2-a]pyrimidin-4-one]",7.49,6.12
"O=c1cc(-c2ccncn2)nc2n1CCCN2C[C@@H](O)c1ccccc1 [Table 1 No. 9, 9-(2(S)-Hydroxy-2-phenyl-ethyl)-2-(pyrimidin-4-yl)-6,7,8,9-tetrahydro-pyrimido[1,2-a]pyrimidin-4-one]",8.70,6.31

# Now from value to compound:
pIC50 (GSK3β),pIC50 (cdk5/p25),Compound
8.70,< 6.00,"CC1(C)CCn2c(nc(-c3ccncn3)cc2=O)N1C[C@@H](O)c1ccc(Cl)cc1 [Table 3 No. 35, 9-[2-(4-Chloro-phenyl)-2(S)-hydroxy-ethyl]-8,8-dimethyl-2-(pyrimidin-4-yl)-6,7,8,9-tetrahydro-pyrimido[1,2-a]pyrimidin-4-one]"
8.40,5.93,"CC1(C)CCn2c(nc(-c3ccncn3)cc2=O)N1C[C@@H](O)c1ccccc1 [Table 3 No. 11, 9-[2(S)-Hydroxy-2-phenyl-ethyl]-8,8-dimethyl-2-(pyrimidin-4-yl)-6,7,8,9-tetrahydro-pyrimido[1,2-a]pyrimidin-4-one]"
8.46,< 6.00,"COc1cc(F)ccc1CCN1CCCn2c1nc(-c1ccncn1)cc2=O [Table 1 No. 91, 9-[2-(4-Fluoro-2-methoxy-phenyl)-ethyl]-2-(pyrimidin-4-yl)-6,7,8,9-tetrahydro-pyrimido[1,2-a]pyrimidin-4-one]"
7.92,6.08,"CC1CCn2c(nc(-c3ccncn3)cc2=O)N1C[C@@H](O)c1ccccc1 (stereo partly drawn) [Table 3 No. 7, 9-[2(S)-Hydroxy-2-phenyl-ethyl]-8-methyl-2-(pyrimidin-4-yl)-6,7,8,9-tetrahydro-pyrimido[1,2-a]pyrimidin-4-one]"
